The term pIC50 denotes −log10 of the IC50, conventionally taken in molar units.

pIC50: −log10 of the molar value.

The target in this test is Estrogen receptor (Homo sapiens) (UniProt P03372). In words: inhibitors of estradiol-driven ERα reporter activity – HEC-1 cells, luciferase reporter, 1 nM E2, orthogonal assay for ERα coactivator binding inhibitor project, dose response (AID 1078). The settings on record: ERE-luciferase reporter, 1 nM E2, 24 h. For orientation: A reporter such as luciferase makes a cellular process visible.
Chain of Estrogen receptor (Homo sapiens) (P03372 whole entry, looked up): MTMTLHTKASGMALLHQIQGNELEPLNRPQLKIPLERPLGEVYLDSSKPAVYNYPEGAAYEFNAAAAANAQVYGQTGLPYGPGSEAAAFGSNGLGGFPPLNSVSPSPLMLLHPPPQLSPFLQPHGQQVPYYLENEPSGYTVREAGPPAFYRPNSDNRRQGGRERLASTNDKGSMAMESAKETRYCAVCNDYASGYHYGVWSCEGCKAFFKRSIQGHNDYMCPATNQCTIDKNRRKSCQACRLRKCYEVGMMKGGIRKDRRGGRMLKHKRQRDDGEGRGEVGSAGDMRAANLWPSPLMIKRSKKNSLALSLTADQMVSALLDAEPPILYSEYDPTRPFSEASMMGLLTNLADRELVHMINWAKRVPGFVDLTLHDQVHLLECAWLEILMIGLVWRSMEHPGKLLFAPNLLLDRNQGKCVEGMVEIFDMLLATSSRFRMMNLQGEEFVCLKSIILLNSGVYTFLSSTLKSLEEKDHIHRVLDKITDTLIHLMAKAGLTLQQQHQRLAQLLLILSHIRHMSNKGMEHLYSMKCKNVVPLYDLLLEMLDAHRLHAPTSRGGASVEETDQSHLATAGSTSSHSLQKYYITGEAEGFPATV

In the case of `Cc1ccc(-n2c(=O)c(C#N)cc3c(=O)n4cccc(C)c4nc32)cc1`, the negative logarithm of the IC50 (pIC50) is 5.33.
